# Data published in the supplement of paper PMC10878532, “Sperm Toolbox—A selection of small molecules to study human spermatozoa” (PLOS ONE, 2024).
# Structures can show the parent of a compound that is named as a salt.
# Experiments:
# HepG2 = HepG2 toxicity (resazurin), effect normalised to DMSO (DMSO = 0); higher = more features changed / larger toxic effect; conditions: incubation time: 70h incubation
# HeLa [1] = test: HeLa toxicity: nuclei-count effect normalised to DMSO (DMSO = 0); higher = more features changed / larger toxic effect; conditions: incubation time: 24h incubation
# HeLa [2] = test: Cell Painting percent induction (share of features beyond 2 z-scores vs DMSO); higher = more features changed / larger toxic effect; extreme values may be limits of the assay; conditions: incubation time: 24h incubation
# human spermatozoa [3] = test: total motile sperm, percent change vs DMSO (non-capacitating); higher = more of the measured sperm population than DMSO, for viability, fewer PI-positive (dead) cells than DMSO
# human spermatozoa [4] = test: viability fold change, 1 - (PI-positive fraction / DMSO median); higher = more of the measured sperm population than DMSO, for viability, fewer PI-positive (dead) cells than DMSO; conditions: incubation time: 3h, non-capacitating
# human spermatozoa [5] = test: progressively motile sperm, percent change vs DMSO (capacitating); higher = more of the measured sperm population than DMSO, for viability, fewer PI-positive (dead) cells than DMSO; conditions: incubation time: 30min incubation
# human spermatozoa [6] = test: hyperactivated motile sperm, percent change vs DMSO (capacitating); higher = more of the measured sperm population than DMSO, for viability, fewer PI-positive (dead) cells than DMSO; conditions: incubation time: 30min incubation
# human spermatozoa [7] = test: change in acrosome-reacted (PNA+) sperm vs DMSO, no agonist (capacitating); higher = more of the measured sperm population than DMSO, for viability, fewer PI-positive (dead) cells than DMSO; conditions: incubation time: 3h
# human spermatozoa [8] = test: acrosome-reacted (PNA+) sperm after agonist cocktail, percent change vs DMSO (capacitating); higher = more of the measured sperm population than DMSO, for viability, fewer PI-positive (dead) cells than DMSO; conditions: incubation time: 3h, capacitating + agonist cocktail 1h
# human spermatozoa [9] = test: progressively motile sperm, percent change vs DMSO (non-capacitating); higher = more of the measured sperm population than DMSO, for viability, fewer PI-positive (dead) cells than DMSO; extreme values may be limits of the assay
# [10] = incubation time: 10min incubation, 9.99 µM
# [11] = incubation time: 10min incubation, 29.9 µM
# [12] = incubation time: 3h incubation, 9.99 µM
# [13] = incubation time: 3h incubation, 29.9 µM
# [14] = incubation time: 6h incubation, 9.99 µM
# [15] = incubation time: 6h incubation, 29.9 µM
# 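Wherever progressively motile sperm, percent change vs DMSO (non-capacitating) is given: pooled live human sperm from at least 3 donors, tracked by automated microscopy in 0.5 s time-lapse movies, compounds at 10 and 30 µM, versus median of 16 DMSO wells per plate.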
# 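Wherever total motile sperm, percent change vs DMSO (non-capacitating) is given: sperm pooled from at least 3 donors, tracked in 0.5 s time-lapse movies by automated microscopy after 10 min, 3 h or 6 h with compound at 10 or 30 µM.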
SMILES,HepG2 toxicity (HepG2; 10 µM),HepG2 toxicity (HepG2; 30 µM),HeLa toxicity: nuclei-count effect normalised (HeLa [1]; 9.99 µM),HeLa toxicity: nuclei-count effect normalised (HeLa [1]; 29.9 µM),Cell Painting percent induction (HeLa [2]; 9.99 µM),Cell Painting percent induction (HeLa [2]; 29.9 µM),total motile sperm (human spermatozoa [3]; [10]),total motile sperm (human spermatozoa [3]; [11]),total motile sperm (human spermatozoa [3]; [12]),total motile sperm (human spermatozoa [3]; [13]),total motile sperm (human spermatozoa [3]; [14]),total motile sperm (human spermatozoa [3]; [15]),viability fold change (human spermatozoa [4]; 9.99 µM),viability fold change (human spermatozoa [4]; 29.9 µM),progressively motile sperm (human spermatozoa [5]; 9.99 µM),progressively motile sperm (human spermatozoa [5]; 29.9 µM),hyperactivated motile sperm (human spermatozoa [6]; 9.99 µM),hyperactivated motile sperm (human spermatozoa [6]; 29.9 µM),change in acrosome-reacted (human spermatozoa [7]; 9.99 µM),change in acrosome-reacted (human spermatozoa [7]; 29.9 µM),acrosome-reacted (human spermatozoa [8]; 9.99 µM),acrosome-reacted (human spermatozoa [8]; 29.9 µM),progressively motile sperm (human spermatozoa [9]; [10]),progressively motile sperm (human spermatozoa [9]; [11]),progressively motile sperm (human spermatozoa [9]; [12]),progressively motile sperm (human spermatozoa [9]; [13]),progressively motile sperm (human spermatozoa [9]; [14]),progressively motile sperm (human spermatozoa [9]; [15])
CN(C)CCCn1cc(C2=C(c3c[nH]c4ccccc34)C(=O)NC2=O)c2ccccc21,-5.59%,8.33%,-5.34%,3.61%,0.072%,0.072%,1.63%,0.0178%,-1.97%,-13.1%,1.29%,-6.7%,-0.204,-0.45,4%,5.48%,11.8%,-3.96%,0.106%,0.127%,-2.39%,-7.18%,3.74%,4.75%,9.83%,-7.22%,23.9%,-4.1%
N=C(N)Nc1nc2ccccc2[nH]1 [2-Guanidinobenzimidazole],7.28%,-2.48%,1.07%,-4.21%,0%,0.036%,0.879%,-2.57%,1.34%,-1.87%,1.24%,-6.01%,-1.37,-0.849,0.502%,7.48%,-8.85%,-1.69%,,,-0.796%,-2.33%,3.14%,0.263%,13%,14%,18.7%,6.54%
CC(=O)N1CCC(C(=O)N(CCCN2CCN(Cc3ccc(F)cc3)CC2)c2ccc(C)c(Cl)c2)CC1 [B07 hydrochloride],,,-8.22%,-2.4%,0%,0%,-3.45%,-1.62%,-0.778%,-4.4%,-2.31%,-8.75%,-0.0249,-0.378,2.3%,5.54%,4.68%,-29.9%,-0.33%,-0.655%,-7.75%,-16.6%,-0.531%,-2.62%,3.74%,-2.22%,13.9%,-0.382%
CC(C)(C)c1ccc(S(=O)(=O)Nc2ccc(OC(F)(F)F)c(F)c2-c2ccc(C(=O)O)c3ncccc23)cc1F [CCR6 inhibitor],2.54%,-7.66%,,,,,2.36%,5.45%,-5.06%,-0.0893%,-5.81%,-4.71%,-0.213,-0.279,3.94%,10.4%,12.5%,-21%,0.627%,0.716%,4.58%,-1.79%,4.23%,5.16%,7.86%,2.54%,7.11%,-7.05%
CO[C@H]1[C@@H](OC)C[C@H](C)[C@@H](OC)C2=CC(=O)C=C(NC(=O)/C(C)=C/C=C/[C@H](OC)[C@@H](OC(N)=O)/C(C)=C/[C@@H]1C)C2=O [Herbimycin a],101%,103%,23.2%,37.9%,0.216%,0%,7.08%,3.19%,-13.6%,-85.1%,-11.7%,-85%,-1.59,-1.04,3.33%,-50.9%,-22.2%,-70.4%,,,,,11.6%,-9.27%,-37.6%,-100%,-46.3%,-100%
CCS(=O)(=O)Nc1ccc2c(c1)/C(=C(/Nc1ccc(CN3CCCCC3)cc1)c1ccccc1)C(=O)N2 [Hesperadin hydrochloride],,,84.4%,96.7%,19.1%,29.9%,-7.06%,-8.13%,-15.5%,-16.9%,-15.3%,-19%,-0.123,-0.0637,-13.4%,-15.1%,-68.7%,-76%,0.15%,1.01%,-34.6%,-37.5%,-47.3%,-48.7%,-44.8%,-57.8%,-44.4%,-55.4%
CCCCCCOC(=O)[C@]1(O)C[C@@H]2O[C@@]1(C)n1c3ccccc3c3c4c(c5c6ccccc6n2c5c31)C(=O)NC4 [KT 5720],,,-2.2%,9.55%,0%,0.072%,-0.664%,-5.21%,5.89%,-0.934%,5.3%,0.422%,-0.0644,-0.13,2.73%,-4.6%,5.63%,-20.1%,1.66%,0.54%,0.89%,0.941%,-3.28%,-15.1%,16.6%,6.24%,29.8%,17.9%
NC(=O)c1cccnc1 [Nicotinamid],,,,,,,0.928%,6.07%,-8.41%,-0.358%,-0.499%,0.662%,-0.835,-0.522,3.35%,13.2%,16%,5.44%,,,,,15.4%,14.2%,-10.7%,3.29%,0.762%,-3.22%
C[C@@H]1O[C@@H](O[C@H]2C[C@@H](O)[C@]3(CO)[C@H]4[C@H](O)C[C@]5(C)[C@@H](C6=CC(=O)OC6)CC[C@]5(O)[C@@H]4CC[C@]3(O)C2)[C@H](O)[C@H](O)[C@H]1O [Ouabain],94.6%,93.2%,72.1%,70.1%,0.54%,0.324%,,,,,,,,,,,,,,,,,,,,,,
c1cnc2c(c1)ccc1cccnc12 [Phenanthroline],,,46%,43%,1.08%,1.15%,-2.32%,-4.26%,3.46%,-8.46%,-1.8%,-11.3%,0.0432,-0.258,10.3%,16.3%,18.4%,17.2%,0.27%,0.435%,8.37%,9.76%,-0.0696%,-0.36%,1.8%,-21.2%,-1.34%,-23.3%
